From patent publication US10647747B2, “Cyclosporin derivatives and uses thereof” (S&T Global Inc., priority 2010, dated 2020)
*1 amine or outer side, *2 acyl side, *3 side chain or, on linkers, in order; H or OH if unused. Where a SMILES comes first, the peptide text is derived from it. [ ]: non-standard residue; d: D form. The star is where a group is joined. X12 = COc1ccc(COC(C)(C)CC(C(=O)[*:2])N(C)[*:1])cc1; X3 = CC=CCC(C)C(O)C(C(=O)[*:2])N(C)[*:1]; X13 = CCN(CC)CCCSC(C(=O)[*:2])N(C)[*:1]; X5 = CSCOC(C)(C)CC(C(=O)[*:2])N(C)[*:1]; X7 = CN(C(SCCCN1CCOCC1)C(=O)[*:2])[*:1]; X4 = CCN(CC)CCSC(C(=O)[*:2])N(C)[*:1]; NMeI = CC[CH](C)[CH](NC)C(=O)O; NMeL = CN[CH](CC(C)C)C(=O)O; NMeV = CN[CH](C(=O)O)C(C)C; Et2NCH2CH2 = CCN(CC)CC*; NMeC = CN[CH](CS)C(=O)O; Abu = CC[CH](N)C(=O)O

Test system: HCV replicon in cell line ET (luc-ubi-neo/ET), Huh7 human hepatoma
Assay: HCV subgenomic replicon assay, luciferase end point
Assay type: cell-based
Conditions: HCV subgenomic replicon, cell line ET (luc-ubi-neo/ET) Huh7, luciferase end point; read-out: Antiviral activity EC50

SMILES | EC50 [nM]
CC=CCC(C)C(O)C1C(=O)NC(CC)C(=O)N(C)C(SCCCN(CC)CC)C(=O)N(C)C(C(C)CC)C(=O)NC(C(C)C)C(=O)N(C)C(CC(C)C)C(=O)NC(C)C(=O)NC(C)C(=O)N(C)C(CC(C)C)C(=O)N(C)C(CC(C)C)C(=O)N(C)C(C(C)C)C(=O)N1C [[(S)-3-(N,N-Diethylamino)propylthio-Sar]-3-[N-MeIle]-4-cyclosporin] (cyclo([X3][Abu][X13][NMeI]V[NMeL]AA[NMeL][NMeL][NMeV]); configuration not given here) | 80
C/C=C/C[C@@H](C)[C@@H](O)[C@H]1C(=O)N[C@@H](CC)C(=O)N(C)[C@H](COCCCN2CCOCC2)C(=O)N(C)[C@@H](CC(C)(C)O)C(=O)N[C@@H](C(C)C)C(=O)N(C)[C@@H](CC(C)C)C(=O)N[C@@H](C)C(=O)N[C@H](C)C(=O)N(C)[C@@H](CC(C)C)C(=O)N(C)[C@@H](CC(C)C)C(=O)N(C)[C@@H](C(C)C)C(=O)N1C [[(R)-(3-(N-Morpholino)propoxy)methyl-Sar]-3-[(γ-hydroxy)-N-MeLeu]-4-cyclosporin] | 90
CC=CCC(C)C(O)C1C(=O)NC(CC)C(=O)N(C)C(CSCCCN(C)C)C(=O)N(C)C(CC(C)(C)OC)C(=O)NC(C(C)C)C(=O)N(C)C(CC(C)C)C(=O)NC(C)C(=O)NC(C)C(=O)N(C)C(CC(C)C)C(=O)N(C)C(CC(C)C)C(=O)N(C)C(C(C)C)C(=O)N1C (stereo not drawn) | 90
C/C=C/C[C@@H](C)[C@@H](O)[C@H]1C(=O)N[C@@H](CC)C(=O)N(C)[C@H](CSCCCN(CC)CC)C(=O)N(C)[C@@H](CC(C)(C)OC)C(=O)N[C@@H](C(C)C)C(=O)N(C)[C@@H](CC(C)C)C(=O)N[C@@H](C)C(=O)N[C@H](C)C(=O)N(C)[C@@H](CC(C)C)C(=O)N(C)[C@@H](CC(C)C)C(=O)N(C)[C@@H](C(C)C)C(=O)N1C | 70
CC=CCC(C)C(O)C1C(=O)NC(CC)C(=O)N(C)C(CSCCN(C)CC(C)(C)C)C(=O)N(C)C(CC(C)(C)O)C(=O)NC(C(C)C)C(=O)N(C)C(CC(C)C)C(=O)NC(C)C(=O)NC(C)C(=O)N(C)C(CC(C)C)C(=O)N(C)C(CC(C)C)C(=O)N(C)C(C(C)C)C(=O)N1C (stereo not drawn) | 70
CC=CCC(C)C(O)C1C(=O)NC(CC)C(=O)N(C)C(CSCCCN(CC)C(C)C)C(=O)N(C)C(CC(C)(C)O)C(=O)NC(C(C)C)C(=O)N(C)C(CC(C)C)C(=O)NC(C)C(=O)NC(C)C(=O)N(C)C(CC(C)C)C(=O)N(C)C(CC(C)C)C(=O)N(C)C(C(C)C)C(=O)N1C (stereo not drawn) | 60
CC=CCC(C)C(O)C1C(=O)NC(CC)C(=O)N(C)C(CSCCN(CC)CC)C(=O)N(C)C(C(C)C)C(=O)NC(C(C)C)C(=O)N(C)C(CC(C)C)C(=O)NC(C)C(=O)NC(C)C(=O)N(C)C(CC(C)C)C(=O)N(C)C(CC(C)C)C(=O)N(C)C(C(C)C)C(=O)N1C [[(S)-(2-(N,N-Diethylamino)ethylthio)methyl-Sar]-3-[N-MeVal]-4-cyclosporin] (cyclo([X3][Abu][NMeC](Et2NCH2CH2)[NMeV]V[NMeL]AA[NMeL][NMeL][NMeV]); configuration not given here) | 140
CC=CCC(C)C(O)C1C(=O)NC(CC)C(=O)N(C)C(COCCCN(CC)CC)C(=O)N(C)C(CC(C)(C)OC)C(=O)NC(C(C)C)C(=O)N(C)C(CC(C)C)C(=O)NC(C)C(=O)NC(C)C(=O)N(C)C(CC(C)C)C(=O)N(C)C(CC(C)C)C(=O)N(C)C(C(C)C)C(=O)N1C (stereo not drawn) | 100
C/C=C/C[C@@H](C)[C@@H](O)[C@H]1C(=O)N[C@@H](CC)C(=O)N(C)[C@H](CSCCCN2CCN(C)CC2)C(=O)N(C)[C@@H](CC(C)(C)O)C(=O)N[C@@H](C(C)C)C(=O)N(C)[C@@H](CC(C)C)C(=O)N[C@@H](C)C(=O)N[C@H](C)C(=O)N(C)[C@@H](CC(C)C)C(=O)N(C)[C@@H](CC(C)C)C(=O)N(C)[C@@H](C(C)C)C(=O)N1C | 90
C/C=C/C[C@@H](C)[C@@H](O)[C@H]1C(=O)N[C@@H](CC)C(=O)N(C)[C@H](COCCN(C)C)C(=O)N(C)[C@@H](CC(C)(C)OC)C(=O)N[C@@H](C(C)C)C(=O)N(C)[C@@H](CC(C)C)C(=O)N[C@@H](C)C(=O)N[C@H](C)C(=O)N(C)[C@@H](CC(C)C)C(=O)N(C)[C@@H](CC(C)C)C(=O)N(C)[C@@H](C(C)C)C(=O)N1C | 150
C/C=C/C[C@@H](C)[C@@H](O)[C@H]1C(=O)N[C@@H](CC)C(=O)N(C)[C@H](CSCCN(CC)CC)C(=O)N(C)[C@@H](CC(C)C)C(=O)N[C@@H](C(C)C)C(=O)N(C)[C@@H](CC(C)C)C(=O)N[C@@H](C)C(=O)N[C@H](C)C(=O)N(C)[C@@H](CC(C)C)C(=O)N(C)[C@@H](CC(C)C)C(=O)N(C)[C@@H](C(C)C)C(=O)N1C (single isomer, unassigned; isomer b) [[(S)-(2-(N,N-Diethylamino)ethylthio)methyl-Sar]-3-cyclosporin (isomer B)] | 160
CC=CCC(C)C(O)C1C(=O)NC(CC)C(=O)N(C)C(CSCCN(CC)CC)C(=O)N(C)C(CC(C)(C)OC)C(=O)NC(C(C)C)C(=O)N(C)C(CC(C)C)C(=O)NC(C)C(=O)NC(C)C(=O)N(C)C(CC(C)C)C(=O)N(C)C(CC(C)C)C(=O)N(C)C(C(C)C)C(=O)N1C (stereo not drawn) | 90

Same assay, conditions: Hepatitis C virus, Huh-7, HCV subgenomic replicon, cell line ET (luc-ubi-neo/ET) Huh7, luciferase end point; read-out: Antiviral activity EC50

SMILES | EC50 [nM]
C/C=C/C[C@@H](C)[C@@H](O)[C@H]1C(=O)N[C@@H](CC)C(=O)N(C)[C@H](COCCN(C)C)C(=O)N(C)[C@@H](CC(C)C)C(=O)N[C@@H](C(C)C)C(=O)N(C)[C@@H](CC(C)C)C(=O)N[C@@H](C)C(=O)N[C@H](C)C(=O)N(C)[C@@H](CC(C)C)C(=O)N(C)[C@@H](CC(C)C)C(=O)N(C)[C@@H](C(C)C)C(=O)N1C [[(R)-(2-(N,N-Dimethylamino)ethoxy)methyl-Sar]-3-cyclosporin] | 150

Same assay, conditions: Hepatitis C virus, Huh-7, Table 14, HCV replicon luciferase; read-out: Antiviral activity EC50

SMILES | EC50 [nM]
C/C=C/C[C@@H](C)[C@@H](O)[C@H]1C(=O)N[C@@H](CC)C(=O)N(C)[C@H](CSCCN2CCCCC2)C(=O)N(C)[C@@H](CC(C)(C)O)C(=O)N[C@@H](C(C)C)C(=O)N(C)[C@@H](CC(C)C)C(=O)N[C@@H](C)C(=O)N[C@H](C)C(=O)N(C)[C@@H](CC(C)C)C(=O)N(C)[C@@H](CC(C)C)C(=O)N(C)[C@@H](C(C)C)C(=O)N1C | 40

Same assay, conditions: Hepatitis C virus, Huh-7, read-out: Antiviral activity EC50, Table 12, HCV replicon luciferase

SMILES | EC50 [nM]
C/C=C/C[C@@H](C)[C@@H](O)[C@H]1C(=O)N[C@@H](CC)C(=O)N(C)CC(=O)N(C)[C@@H](C(C)C)C(=O)N[C@@H](C(C)C)C(=O)N(C)[C@@H](CC(C)C)C(=O)N[C@@H](C)C(=O)N[C@H](C)C(=O)N(C)[C@@H](CC(C)C)C(=O)N(C)[C@@H](CC(C)C)C(=O)N(C)[C@@H](C(C)C)C(=O)N1C [[N-MeVal]-4-cyclosporin (SDZ 220-384), N-MeVal-4-Cyclosporin, reference compound] | 170

Same assay, conditions: Table 13, HCV replicon luciferase; read-out: Antiviral activity EC50

SMILES | EC50 [nM]
CC=CCC(C)C(O)C1C(=O)NC(CC)C(=O)N(C)C(SCCN(CC)CC)C(=O)N(C)C(CC(C)(C)OCSC)C(=O)NC(C(C)C)C(=O)N(C)C(CC(C)C)C(=O)NC(C)C(=O)NC(C)C(=O)N(C)C(CC(C)C)C(=O)N(C)C(CC(C)C)C(=O)N(C)C(C(C)C)C(=O)N1C (stereo not drawn) (cyclo([X3][Abu][X4][X5]V[NMeL]AA[NMeL][NMeL][NMeV]); configuration not given here) | 130
CC=CCC(C)C(O)C1C(=O)NC(CC)C(=O)N(C)C(SCCCN2CCOCC2)C(=O)N(C)C(CC(C)(C)OCc2ccc(OC)cc2)C(=O)NC(C(C)C)C(=O)N(C)C(CC(C)C)C(=O)NC(C)C(=O)NC(C)C(=O)N(C)C(CC(C)C)C(=O)N(C)C(CC(C)C)C(=O)N(C)C(C(C)C)C(=O)N1C (stereo not drawn) (cyclo([X3][Abu][X7][X12]V[NMeL]AA[NMeL][NMeL][NMeV]); configuration not given here) | 280
C/C=C/C[C@@H](C)[C@@H](O)[C@H]1C(=O)N[C@@H](CC)C(=O)N(C)[C@@H](CSCCN(CC)CC)C(=O)N(C)[C@@H](CC(C)(C)O)C(=O)N[C@@H](C(C)C)C(=O)N(C)[C@@H](CC(C)C)C(=O)N[C@@H](C)C(=O)N[C@H](C)C(=O)N(C)[C@@H](CC(C)C)C(=O)N(C)[C@@H](CC(C)C)C(=O)N(C)[C@@H](C(C)C)C(=O)N1C (single isomer, unassigned; isomer a) [listing 1 of 2 here] | 2120
CC=CCC(C)C(O)C1C(=O)NC(CC)C(=O)N(C)C(SCCCN2CCOCC2)C(=O)N(C)C(CC(C)(C)O)C(=O)NC(C(C)C)C(=O)N(C)C(CC(C)C)C(=O)NC(C)C(=O)NC(C)C(=O)N(C)C(CC(C)C)C(=O)N(C)C(CC(C)C)C(=O)N(C)C(C(C)C)C(=O)N1C [[(S)-3-(N-Morpholino)propylthio-Sar]-3-[(γ-hydroxy)-N-MeLeu]-4-cyclosporin] | 50

Same assay, conditions: Table 14, HCV replicon luciferase; read-out: Antiviral activity EC50

SMILES | EC50 [nM]
C/C=C/C[C@@H](C)[C@@H](O)[C@H]1C(=O)N[C@@H](CC)C(=O)N(C)[C@@H](CSCCN(CC)CC)C(=O)N(C)[C@@H](CC(C)(C)O)C(=O)N[C@@H](C(C)C)C(=O)N(C)[C@@H](CC(C)C)C(=O)N[C@@H](C)C(=O)N[C@H](C)C(=O)N(C)[C@@H](CC(C)C)C(=O)N(C)[C@@H](CC(C)C)C(=O)N(C)[C@@H](C(C)C)C(=O)N1C (single isomer, unassigned; isomer a) [listing 2 of 2 here] | 2120

Same assay, conditions: Table 16, HCV replicon luciferase; read-out: Antiviral activity EC50

SMILES | EC50 [nM]
C/C=C/C[C@@H](C)[C@@H](O)[C@H]1C(=O)N[C@@H](CC)C(=O)N(C)[C@H](CSCCN2CCN(CC)CC2)C(=O)N(C)[C@@H](CC(C)(C)O)C(=O)N[C@@H](C(C)C)C(=O)N(C)[C@@H](CC(C)C)C(=O)N[C@@H](C)C(=O)N[C@H](C)C(=O)N(C)[C@@H](CC(C)C)C(=O)N(C)[C@@H](CC(C)C)C(=O)N(C)[C@@H](C(C)C)C(=O)N1C | 60
CC=CCC(C)C(O)C1C(=O)NC(CC)C(=O)N(C)C(CSCCCN2CCN(CC(C)(C)C)CC2)C(=O)N(C)C(CC(C)(C)O)C(=O)NC(C(C)C)C(=O)N(C)C(CC(C)C)C(=O)NC(C)C(=O)NC(C)C(=O)N(C)C(CC(C)C)C(=O)N(C)C(CC(C)C)C(=O)N(C)C(C(C)C)C(=O)N1C (stereo not drawn) | 60
CC=CCC(C)C(O)C1C(=O)NC(CC)C(=O)N(C)C(CSCCCCOCCN(CC)CC)C(=O)N(C)C(CC(C)(C)O)C(=O)NC(C(C)C)C(=O)N(C)C(CC(C)C)C(=O)NC(C)C(=O)NC(C)C(=O)N(C)C(CC(C)C)C(=O)N(C)C(CC(C)C)C(=O)N(C)C(C(C)C)C(=O)N1C (stereo not drawn) | 50
C/C=C/C[C@@H](C)[C@@H](O)[C@H]1C(=O)N[C@@H](CC)C(=O)N(C)[C@H](CSCCCN2CCN(C)CC2)C(=O)N(C)[C@@H](CC(C)(C)O)C(=O)N[C@@H](C(C)C)C(=O)N(C)[C@@H](CC(C)C)C(=O)N[C@@H](C)C(=O)N[C@H](C)C(=O)N(C)[C@@H](CC(C)C)C(=O)N(C)[C@@H](CC(C)C)C(=O)N(C)[C@@H](C(C)C)C(=O)N1C | 40
